We go through twelve molecules from US12091426B2, “Bifunctional degraders of hematopoietic progenitor kinase and therapeutic uses thereof” (Nurix Therapeutics, Inc., priority 2021, dated 2024).

This test deals with T1, HPK1 (Homo sapiens, UniProt Q92918).
T1 construct: A HiBiT tag was introduced by CRISPR on the N terminus of HPK1 in Jurkat cells; host or cells: Jurkat cells (ATCC TIB-152), monoclonal line with CRISPR knock-in of HiBiT at the endogenous HPK1 locus
As to the kind of experiment: HPK1 Cellular HiBit Degradation Assay. Type of test: cell-based. The settings on record: HiBiT HPK1 Jurkat cells, 24 hrs; for DC50: concentration at which 50% of HPK1 was remaining, read-out: DC50 Category; for Dmax: Jurkat, maximum degradation vs DMSO vehicle control, read-out: Dmax Category. In a few lines:
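HiBiT-HPK1 Jurkat (CRISPR, N-term tag), 3×10^4 cells/well, RPMI 1640 + 10% FBS; CTMs 10 uM–0.1 nM, 11 pts; 24 hrs, 37° C/5% CO2; lytic HiBiT luminescence; % remaining vs DMSO, parental background subtracted; 4-parameter fit → DC50, Dmax.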

Some results are limits rather than exact numbers.

T1 sequence (Q92918 whole entry): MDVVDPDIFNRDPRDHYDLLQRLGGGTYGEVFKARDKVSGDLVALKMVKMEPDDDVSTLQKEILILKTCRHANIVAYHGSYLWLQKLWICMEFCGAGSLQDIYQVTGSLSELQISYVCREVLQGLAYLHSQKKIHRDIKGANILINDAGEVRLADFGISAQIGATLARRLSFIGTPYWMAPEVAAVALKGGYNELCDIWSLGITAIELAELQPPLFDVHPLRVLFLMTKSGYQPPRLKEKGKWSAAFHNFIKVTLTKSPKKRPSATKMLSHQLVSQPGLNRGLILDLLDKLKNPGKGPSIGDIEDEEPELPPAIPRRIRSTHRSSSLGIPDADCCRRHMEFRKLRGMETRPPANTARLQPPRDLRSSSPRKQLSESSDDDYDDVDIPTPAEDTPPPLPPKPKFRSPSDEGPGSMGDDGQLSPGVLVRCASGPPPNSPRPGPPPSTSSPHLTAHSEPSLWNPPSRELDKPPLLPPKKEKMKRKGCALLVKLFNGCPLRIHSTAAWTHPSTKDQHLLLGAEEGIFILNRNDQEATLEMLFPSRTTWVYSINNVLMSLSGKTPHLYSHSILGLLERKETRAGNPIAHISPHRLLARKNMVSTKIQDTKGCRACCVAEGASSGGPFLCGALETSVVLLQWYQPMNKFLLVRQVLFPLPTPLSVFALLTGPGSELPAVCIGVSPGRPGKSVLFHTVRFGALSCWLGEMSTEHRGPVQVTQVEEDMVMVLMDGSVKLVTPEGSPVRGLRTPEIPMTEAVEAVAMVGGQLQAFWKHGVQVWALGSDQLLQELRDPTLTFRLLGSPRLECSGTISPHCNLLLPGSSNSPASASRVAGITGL

`CC(C)n1cnc2cc(-c3ccc4c(c3)N([C@H]3C[C@@H](N5CCCCC5)C3)C(=O)C43CCN(C(=O)C4C5CC4CN(C(=O)C4CCN(c6ccc(C7CCC(=O)NC7=O)cn6)CC4)C5)CC3)nc(NC3CC3)c21` (mixture of isomers) [Example 282, (3RS)-3-(6-{4-[6-({6-[4-(cyclopropylamino)-3-(propan-2-yl)-3H-imidazo[4,5-c]pyridin-6-yl]-2-oxo-1-[(1S,3S)-3-(piperidin-1-yl)cyclobutyl]-1,2-dihydrospiro[indole-3,4′-piperidin]-1′-yl}carbonyl)-3-azabicyclo[3.1.1]heptane-3-carbonyl]piperidin-1-yl}pyridin-3-yl)piperidine-2,6-dione]: the DC50 was below 0.1 µM and the Dmax lay within 70 to 85%.
In the same order, the values of `CC(C)n1cnc2cc(-c3ccc4c(c3)N([C@H]3C[C@@H](N5CCCCC5)C3)C(=O)C43CCN(C(=O)C4CC5CCC4N(C(=O)C4CCN(c6ccc(C7CCC(=O)NC7=O)cn6)CC4)C5)CC3)nc(NC3CC3)c21` (mixture of isomers) [Example 283, (3RS)-3-(6-{4-[6-({6-[4-(cyclopropylamino)-3-(propan-2-yl)-3H-imidazo[4,5-c]pyridin-6-yl]-2-oxo-1-[(1S,3S)-3-(piperidin-1-yl)cyclobutyl]-1,2-dihydrospiro[indole-3,4′-piperidin]-1′-yl}carbonyl)-2-azabicyclo[2.2.2]Octane-2-carbonyl]piperidin-1-yl}pyridin-3-yl)piperidine-2,6-dione] are 0.1 to 0.5 µM and 50 to 70%.
The matching figures for `CC(C)n1cnc2cc(-c3ccc4c(c3)N([C@H]3C[C@@H](N5CCCCC5)C3)C(=O)C43CCN(C(=O)C4C5CCC4CN(C(=O)C4CCN(c6ccc(C7CCC(=O)NC7=O)cn6)CC4)C5)CC3)nc(NC3CC3)c21` (mixture of isomers) [Example 284, (3RS)-3-(6-{4-[8-({6-[4-(cyclopropylamino)-3-(propan-2-yl)-3H-imidazo[4,5-c]pyridin-6-yl]-2-oxo-1-[(1S,3S)-3-(piperidin-1-yl)cyclobutyl]-1,2-dihydrospiro[indole-3,4′-piperidin]-1′-yl}carbonyl)-3-azabicyclo[3.2.1]Octane-3-carbonyl]piperidin-1-yl}pyridin-3-yl)piperidine-2,6-dione]: below 0.1 µM and 70 to 85%.
The matching figures for `CC(C)n1cnc2cc(-c3ccc4c(c3)N([C@H]3C[C@@H](N5CCCCC5)C3)C(=O)C43CCN(C(=O)C4CN(C(=O)C5CCN(c6ccc(C7CCC(=O)NC7=O)cn6)CC5)CCC4(F)F)CC3)nc(NC3CC3)c21` (mixture of isomers) [Example 285, (3RS)-3-(6-{4-[3-({6-[4-(cyclopropylamino)-3-(propan-2-yl)-3H-imidazo[4,5-c]pyridin-6-yl]-2-oxo-1-[(1S,3S)-3-(piperidin-1-yl)cyclobutyl]-1,2-dihydrospiro[indole-3,4′-piperidin]-1′-yl}carbonyl)-4,4-Difluoropiperidine-1-carbonyl]piperidin-1-yl}pyridin-3-yl)piperidine-2,6-dione]: 0.1 to 0.5 µM and 50 to 70%.
Turning to `CC(C)n1cnc2cc(-c3ccc4c(c3)N([C@H]3C[C@@H](N5CCCCC5)C3)C(=O)C43CCN(C(=O)[C@@H]4C[C@H]5CC[C@@H](C4)N5C(=O)C4CCN(c5ccc(C6CCC(=O)NC6=O)cn5)CC4)CC3)nc(NC3CC3)c21` (mixture of isomers) [Example 286, (3SR)-3-(6-{4-[(1S,3R,5RS)-3-({6-[4-(cyclopropylamino)-3-(propan-2-yl)-3H-imidazo[4,5-c]pyridin-6-yl]-2-oxo-1-[(1S,3S)-3-(piperidin-1-yl)cyclobutyl]-1,2-dihydrospiro[indole-3,4′-piperidin]-1′-yl}carbonyl)-8-azabicyclo[3.2.1]octane-8-carbonyl]piperidin-1-yl}pyridin-3-yl)piperidine-2,6-dione], the DC50 was below 0.1 µM and the Dmax lay within 70 to 85%.
For the molecule `CC(C)n1cnc2cc(-c3ccc4c(c3)N([C@H]3C[C@@H](N5CCCCC5)C3)C(=O)C43CCN(C(=O)C4CN(C(=O)C5CCN(c6ccc(C7CCC(=O)NC7=O)cn6)CC5)CCC45CCC5)CC3)nc(NC3CC3)c21` (mixture of isomers) [Example 287, (3RS)-3-(6-{4-[5-({6-[4-(cyclopropylamino)-3-(propan-2-yl)-3H-imidazo[4,5-c]pyridin-6-yl]-2-oxo-1-[(1S,3S)-3-(piperidin-1-yl)cyclobutyl]-1,2-dihydrospiro[indole-3,4′-piperidin]-1′-yl}carbonyl)-7-azaspiro[3.5]nonane-7-carbonyl]piperidin-1-yl}pyridin-3-yl)piperidine-2,6-dione], the DC50 is below 0.1 µM and the Dmax was 70 to 85%.
In the same order, the values of `CC(C)n1cnc2cc(-c3ccc4c(c3)N([C@H]3C[C@@H](N5CCCCC5)C3)C(=O)C43CCN(C(=O)C4C5COCC4CN(C(=O)C4CCN(c6ccc(C7CCC(=O)NC7=O)cn6)CC4)C5)CC3)nc(NC3CC3)c21` (mixture of isomers) [Example 288, (3RS)-3-(6-{4-[9-({6-[4-(cyclopropylamino)-3-(propan-2-yl)-3H-imidazo[4,5-c]pyridin-6-yl]-2-oxo-1-[(1S,3S)-3-(piperidin-1-yl)cyclobutyl]-1,2-dihydrospiro[indole-3,4′-piperidin]-1′-yl}carbonyl)-3-oxa-7-azabicyclo[3.3.1]nonane-7-carbonyl]piperidin-1-yl}pyridin-3-yl)piperidine-2,6-dione] are below 0.1 µM and above 85%.
The matching figures for `CC(C)n1cnc2cc(-c3ccc4c(c3)N([C@H]3C[C@@H](N5CCCCC5)C3)C(=O)C43CCN(C(=O)C4CC5CCC(C4)N5C(=O)C4CCN(c5ccc(C6CCC(=O)NC6=O)cc5)CC4)CC3)nc(NC3CC3)c21` (mixture of isomers) [Example 289, (3RS)-3-(4-{4-[3-({6-[4-(cyclopropylamino)-3-(propan-2-yl)-3H-imidazo[4,5-c]pyridin-6-yl]-2-oxo-1-[(1S,3S)-3-(piperidin-1-yl)cyclobutyl]-1,2-dihydrospiro[indole-3,4′-piperidin]-1′-yl}carbonyl)-8-azabicyclo[3.2.1]Octane-8-carbonyl]piperidin-1-yl}phenyl)piperidine-2,6-dione]: below 0.1 µM and 70 to 85%.
Consider `CC(C)n1cnc2cc(-c3ccc4c(c3)N([C@H]3C[C@@H](N5CCCCC5)C3)C(=O)C43CCN(C(=O)C4CCC5(CCC5)N(C(=O)C5CCN(c6ccc(C7CCC(=O)NC7=O)cn6)CC5)C4)CC3)nc(NC3CC3)c21` (mixture of isomers) [Example 290, (3RS)-3-(6-{4-[7-({6-[4-(cyclopropylamino)-3-(propan-2-yl)-3H-imidazo[4,5-c]pyridin-6-yl]-2-oxo-1-[(1S,3S)-3-(piperidin-1-yl)cyclobutyl]-1,2-dihydrospiro[indole-3,4′-piperidin]-1′-yl}carbonyl)-5-azaspiro[3.5]nonane-5-carbonyl]piperidin-1-yl}pyridin-3-yl)piperidine-2,6-dione], for which the DC50 lay within 0.1 to 0.5 µM and the maximal degradation (Dmax) lay in the range of 70 to 85%.
In the same order, the values of `CC(C)n1cnc2cc(-c3ccc4c(c3)N([C@H]3C[C@@H](N5CCCCC5)C3)C(=O)C43CCN(C(=O)[C@H]4CC[C@H](CNC(=O)C5CCN(c6ccc(C7CCC(=O)NC7=O)cn6)CC5)CC4)CC3)nc(NC3CC3)c21` (mixture of isomers) [Example 291, 1-{5-[(3RS)-2,6-dioxopiperidin-3-yl]pyridin-2-yl}-N-{[(1R,4R)-4-({6-[4-(cyclopropylamino)-3-(propan-2-yl)-3H-imidazo[4,5-c]pyridin-6-yl]-2-oxo-1-[(1S,3S)-3-(piperidin-1-yl)cyclobutyl]-1,2-dihydrospiro[indole-3,4′-piperidin]-1′-yl}carbonyl)cyclohexyl]methyl}piperidine-4-carboxamide] are 0.1 to 0.5 µM and 70 to 85%.
In the same order, the values of `CC(C)n1cnc2cc(-c3ccc4c(c3)N([C@H]3C[C@@H](N5CCCCC5)C3)C(=O)C43CCN(C(=O)[C@@H]4CCC[C@H](NC(=O)CC5CCN(c6ccc(C7CCC(=O)NC7=O)cn6)CC5)C4)CC3)nc(NC3CC3)c21` (mixture of isomers) [Example 292, N-[(1S,3R)-3-({6-[4-(cyclopropylamino)-3-(propan-2-yl)-3H-imidazo[4,5-c]pyridin-6-yl]-2-oxo-1-[(1s,3s)-3-(piperidin-1-yl)cyclobutyl]-1,2-dihydrospiro[indole-3,4′-piperidin]-1′-yl}carbonyl)cyclohexyl]-2-(1-{5-[(3RS)-2,6-dioxopiperidin-3-yl]pyridin-2-yl}piperidin-4-yl)acetamide] are 0.1 to 0.5 µM and 70 to 85%.
The matching figures for `CC(C)n1cnc2cc(-c3ccc4c(c3)N([C@H]3C[C@@H](N5CCCCC5)C3)C(=O)C43CCN(C(=O)c4ccc(CN5CCN(C(=O)C6CCN(c7ccc(C8CCC(=O)NC8=O)cn7)CC6)CC5)cc4)CC3)nc(NC3CC3)c21` (mixture of isomers) [Example 293, (3RS)-3-{6-[4-(4-{[4-({6-[4-(cyclopropylamino)-3-(propan-2-yl)-3H-imidazo[4,5-c]pyridin-6-yl]-2-oxo-1-[(1S,3S)-3-(piperidin-1-yl)cyclobutyl]-1,2-dihydrospiro[indole-3,4′-piperidin]-1′-yl}carbonyl)phenyl]methyl}piperazine-1-carbonyl)piperidin-1-yl]pyridin-3-yl}piperidine-2,6-dione]: 0.1 to 0.5 µM and 70 to 85%.

In general, DC50 refers to the midpoint of the concentration-degradation curve. One may read the Dmax as the largest share of the target that was removed.
